This is an account of results in paper PMC5996347, “2-Mercapto-Quinazolinones as Inhibitors of Type II NADH Dehydrogenase and Mycobacterium tuberculosis: Structure–Activity Relationships, Mechanism of Action and Absorption, Distribution, Metabolism, and Excretion Characterization” (ACS Infectious Diseases, 2018).

In brackets after ≈: the same amount, converted by molar mass.

For data set [1], the system named is M. tuberculosis H37Rv. In words: H37Rv MIC in GAST medium. In kind it is cell-based, Mycobacterium tuberculosis. Conditions: Mycobacterium tuberculosis, H37RV.
The test system of data set [2] is M. tuberculosis H37Rv. In words: microbe, parasite or virus in culture. It counts as cell-based. As to conditions: Mycobacterium tuberculosis.
The subject of data set [3] is cyd knockout strain (cydC::aph). In kind it is cell-based, Mycobacterium tuberculosis.
A short description of another data set: physchem. It counts as physicochemical. As to conditions: water, kinetic from dmso stock, Kinetic solubility. The method, then:
The aqueous solubility of the test compounds was measured using laser nephelometry. Compounds were subject to serial dilution from 10 to 0.5 mM in DMSO. An aliquot was then mixed with Milli-Q water to obtain an aqueous dilution plate with a final concentration range of 250–12 μM, with a final DMSO concentration of 2.5%. Triplicate aliquots were transferred to a flat bottomed polystyrene plate which was immediately read on the NEPHELOstar (BMG Lab Technologies). The amount of laser scatter caused by insoluble particulates (relative nephelometry units, RNU) was plotted against compound concentration using a segmental regression fit, with the point of inflection being quoted as the compounds aqueous solubility (μM).

A further data set in a line: in vitro. It counts as in vitro ADME. As to conditions: PAMPA, pH 7.4. The method, then: The permeability was performed using a 96-well precoated BD Gentest PAMPA plate (BD Biosciences, U.K.). Each well was divided into two chambers: donor and acceptor, separated by a lipid-oil-lipid trilayer constructed in a porous filter. The effective permeability, Pe, of the compound was measured at pH 7.4. Stock solutions (5 mM) of the compound were prepared in DMSO. The compound was then further diluted to 10 μM in phosphate buffered saline at pH 7.4. […] The compound dissolved in phosphate buffered saline was then added to the donor side of the membrane, and phosphate buffered saline without compound was added to the acceptor side. The PAMPA plate was left at room temperature for 5 h; after which time, an aliquot (100 μL) was then removed from both acceptor and donor compartments and mixed with acetonitrile (80 μL) containing an internal standard: donepezil at 50 ng/mL). The samples were centrifuged (10 min, 5 °C, 3270g) to sediment precipitated protein and sealed prior to UPLC-MS/MS analysis using a Quattro Premier XE (Waters Corp, USA). Pe was calculated as shown in the below equation. [drawing 2] where CA(t) = peak area of compound present in acceptor well at time (t) = 18 000 s; Cequi = [CD(t) × VD + CA(t) × VA]/(VD + VA); A = filter area; VD = donor well volume; VA = acceptor well volume; t = incubation time; CD(t) = peak area of compound present in donor well at time (t) = 18 000 s. Recovery of compound from donor and acceptor wells was calculated, and data was only accepted when recovery exceeded 70%.

Data set [4] is classed as in vitro ADME. Conditions: mouse, plasma. The protocol: In brief, a 96-well equilibrium dialysis apparatus was used to determine the free fraction in plasma for each compound (HT Dialysis LLC, Gales Ferry, CT). Membranes (12–14 kDaA cutoff) were conditioned in deionized water for 60 min, followed by conditioning in 80:20 deionized water/ethanol overnight and then rinsed in water and isotonic buffer before use. Mouse plasma from appropriate species was removed from the freezer and allowed to thaw on the day of experiment. Thawed plasma was then centrifuged (Allegra X12-R, Beckman Coulter, USA) and spiked with test compound (final concentration 10 μg/mL), and 150 μL aliquots (n = 3 replicate determinations) were loaded into the 96-well equilibrium dialysis plate. Dialysis against isotonic buffer (150 μL) was carried out for 5 h in a temperature controlled incubator at ca. 37 °C (Barworld scientific Ltd., UK) using an orbital microplate shaker at 100 rpm (Barworld scientific Ltd., UK). At the end of the incubation period, 50 μL aliquots of plasma or buffer were transferred into a 96-well deep plate and the composition in each well was balanced with control fluid (50 μL), such that the volume of buffer to plasma is the same. Sample extraction was performed by the addition of 200 μL of acetonitrile containing an appropriate internal standard. Samples were allowed to mix for 1 min and then centrifuged at 3000 rpm in 96-well blocks for 15 min (Allegra X12-R, Beckman Coulter, USA) after which 150 μL of supernatant was removed to 50 μL of water. All samples were analyzed by UPLC-MS/MS on a Quattro Premier XE Mass Spectrometer (Waters Corporation, USA). The unbound fraction was determined as the ratio of the peak area in buffer to that in plasma.

In data set [5] the target is T1, recombinant MBP-MtNdh (MTb NDH-2) (Mycobacterium tuberculosis, UniProt P95160).
T1 construct: The ORF corresponding to Rv1854c was codon optimized for E. coli; made in house; host or cells: E. coli BL21 (DE3) pLysS
In words: Ndh activity assay (NADH oxidation at 340 nm). It counts as biochemical.

A further data set has as its system wild-type MTb H37Rv. In words: CFU after 7 days of treatment, wild-type. It counts as cell-based, Mycobacterium tuberculosis. Conditions: treatment at MIC concentrations. The method, then:
Figure 4 Mtb lacking the alternative type II NADH dehydrogenase encoded by ndhA was more susceptible to compound 1. Colony-forming units (CFU) after 7 days of treatment as compared to CFU at start of drug treatment (inoculum). Unpaired t test comparison between WT and ΔndhA at 0.5 μM compound 1: two-tailed P-value = 0.0023.

The test system of a further data set is ndhA mutant. In kind it is cell-based. As to conditions: results not shown.
Data set [6] deals with MTb H37Rv in J774 macrophages. In words: Activity against MTb in infected macrophages. It counts as cell-based, Mycobacterium tuberculosis. As to conditions: 7 days of drug treatment, CFU. The protocol:
Figure S7. […] J774 macrophages in
24w plates (500,000 cells per well) were infected with MTb H37Rv at an MOI of 1:1 for 24 hours. Infected cells were washed three times and supplemented with macrophage growth medium with compounds at the indicated concentrations or the DMSO solvent. Cell medium was replenished every 3 days and cells lyzed after 7 days of drug treatment and plated on 7H11/OADC plates for CFU enumeration.
(1 picture or pasted object on this page, not shown here)

For data set [7] the following is noted: mouse liver microsomes.
The subject of a further data set is HepG2. In words: cells. As to conditions: Homo sapiens, HepG2, read-out: HepG2 IC50.
Data set [8] relates to M. tuberculosis H37Rv. In words: Extracellular flux analysis (oxygen consumption rate). Conditions: 1 at 39 μM, 7 at 45 μM.

T1 sequence (P95160 whole entry): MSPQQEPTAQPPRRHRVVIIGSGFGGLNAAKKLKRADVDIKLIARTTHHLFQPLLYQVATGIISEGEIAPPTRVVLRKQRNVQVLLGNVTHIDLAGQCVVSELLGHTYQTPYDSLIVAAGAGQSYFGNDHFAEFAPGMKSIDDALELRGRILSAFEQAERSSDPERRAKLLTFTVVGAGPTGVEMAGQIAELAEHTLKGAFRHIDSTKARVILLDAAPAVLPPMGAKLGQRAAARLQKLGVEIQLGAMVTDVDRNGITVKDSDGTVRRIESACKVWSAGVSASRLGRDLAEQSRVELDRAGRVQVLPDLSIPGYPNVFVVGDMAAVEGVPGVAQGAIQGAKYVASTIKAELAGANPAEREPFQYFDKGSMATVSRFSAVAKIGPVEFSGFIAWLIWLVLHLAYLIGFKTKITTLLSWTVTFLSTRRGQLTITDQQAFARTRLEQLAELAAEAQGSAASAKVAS

For `O=C(CSc1nc2ccccc2c(=O)[nH]1)NC1CCCCC1` [Compound 1, N-Cyclohexyl-2-((4-oxo-3,4-dihydroquinazolin-2-yl)thio)acetamide], the MIC stood at 0.3 µM with M. tuberculosis H37Rv [1] (read-out: GAST MIC), 95 ng/mL with M. tuberculosis H37Rv [1] (read-out: GAST MIC in ng/mL), 0.6 µM with M. tuberculosis H37Rv [2] (read-out: 7H9-ADC MIC) and 190 ng/mL with M. tuberculosis H37Rv [2] (read-out: 7H9-ADC MIC in ng/mL). Moreover, the “Cyd KO reporter” value in [3] is listed as “Not likely QcrB inhibitor”. This compound also showed a kinetic solubility in the data set “physchem” of 83 µM (≈ 26.3 µg/mL). This compound also returned a Papp at 5 h, 10 μM in the data set “in vitro” of 8.3 ×10⁻⁶ cm/s. Further, the “PPB (% unbound)” value in data set [4] is recorded as 14 % unbound. Besides, the IC50 in data set [5] (NADH 250 μM, Q2 40 μM, mean ± SD, Figure 6 inset, read-out: IC50 against MBP-MtNdh) was 23 ± 8 nM; in the data set with HepG2, above 50000 nM. The Ki in data set [5] (varying Q2 or NADH, double reciprocal plots, read-out: Ki against MtNdh) was 30 to 40 nM. Further, in data set [5] (versus Q2 and NADH), the “Mode of inhibition against MtNdh” value is on record as “noncompetitive mode of inhibition with both substrates”. Moreover, the “Growth of wild-type MTb H37Rv over 7 days” value in the data set with wild-type MTb H37Rv was “could not fully suppress growth”. For the same compound, the “MIC to ndhA mutant strain compared with WT” value against ndhA mutant is on record as “indistinguishable from WT cells”. Moreover, the “Activity against MTb growing in infected macrophages” value in [6] was “lacked activity”. Moreover, the “Mouse microsomal metabolite identification” value in data set [7] was “significant oxidation of the cyclohexyl and quinazolin-4(3H)-one rings as well as cleavage of the amide bond”. Also, the “Effect on maximal respiration after CCCP uncoupling” value in the data set with M. tuberculosis H37Rv [8] (CCCP 3 μM, compared to untreated control) is listed as “significantly diminished maximal respiration”. The “Effect on basal MTb OCR” value in the data set on M. tuberculosis H37Rv [8] (~45 min, glucose or palmitate) is “minimal effect”.
